Earlier results as cited in PMC5228037, “Discovery and Mechanistic Characterization of Selective Inhibitors of H2S-producing Enzyme: 3-Mercaptopyruvate Sulfurtransferase (3MST) Targeting Active-site Cysteine Persulfide” (Scientific Reports, 2017).

Tests used:
[1] = design: method as in PMID 26269587; details: cited from earlier work
3MST = details: cited from earlier work; for Inhibition constant Ki for 3MST: substrate-like inhibitors

N[C@@H](CSS)C(=O)O [cysteine persulfide]
calculated pKa [1]: 4.34

O=C(O)CCS [3-mercaptopropionic acid]
Inhibition constant Ki for 3MST (3MST): several

CC(=O)C(=O)O [pyruvate]
Inhibition constant Ki for 3MST (3MST): several

O=C(O)C(=O)CS [3MP, 3-mercaptopyruvate]
Km (3MST; substrate, read-out: Michaelis constant Km for 3MST): 4.08 mM
